{"source": "patent US8940720B2", "about": "“Macrocycles as factor XIa inhibitors” (Bristol-Myers Squibb Company, priority 2010, dated 2015)", "key": {"[1]": {"settings": "from C=CCCC(=O)Nc1cc(NC(=O)OC)ccc1-c1nnc(Cl)cc1C(CC=C)NC(=O)OC(C)(C)C; rcm bond; 12-membered ring; Grubbs II (0.3 eq); DCM; 6.6 mM"}, "[2]": {"settings": "rcm bond, Grubbs II, DCM"}}, "note": "Where two headings read alike, the source gives them in different places.", "data": [{"smiles": "COC(=O)Nc1ccc2c(c1)NC(=O)CC/C=C/CC(NC(=O)OC(C)(C)C)c1cc(Cl)nnc1-2", "note": "(stereo not drawn)", "values": [{"measurement": "ring closure, isolated yield", "setting": "[1]", "result": 56, "unit": "%"}, {"measurement": "ring closure, yield of all isomers", "setting": "[2]; from C=CCCC(=O)Nc1cc(NC(=O)OC)ccc1-c1nnc(Cl)cc1C(CC=C)NC(=O)OC(C)(C)C, 6.6 mM, 40.0 °C, 1.0 h", "result": 56, "unit": "%"}]}, {"smiles": "CC(C)(C)OC(=O)N[C@H]1CC=CCCC(=O)Nc2ccccc2C2=NN=C1O2", "note": "(mixture of isomers)", "values": [{"measurement": "ring closure, yield of all isomers", "setting": "[2]; from C=CCCC(=O)Nc1ccccc1-c1nnc([C@H](CC=C)NC(=O)OC(C)(C)C)o1, 4.8 mM, 75.0 °C, 1.5 h", "result": 27, "unit": "%"}]}]}
